From patent publication US20100209508A1, “Substituted Phenylphosphates as Mutual Prodrugs of Steroids and ß-Agonists for the Treatment of Title Pulmonary Inflammation and Bronchoconstriction” (CORUS PHARMA, INC., priority 2005, published 2010)
pIC50: −log10 of the molar value. Where two headings read alike, the source gives them in different places.

Tests used:
[1] = system: splenic lymphocytes isolated from C57BL/6 mice and CBA mice; assay: Immunosuppression ([3H]TMD incorporation in mouse splenic lymphocytes); assay type: cell-based; conditions: "Not active" = less than 25% inhibition at 1000 nM
[2] = system: TNF-α; assay: TNF-α secretion (h) (PBMC); assay type: cell-based, human; conditions: LPS (1 μg/ml), 24 h/37° C., EIA, "Not active" = less than 25% inhibition at highest tested concentration 1000 nM; for pIC50: read-out: TNF-α secretion IC50
[3] = system: IL-1β; assay: IL-1β secretion (h) (PBMC); assay type: cell-based; conditions: Homo sapiens, LPS (1 μg/ml), 24 h/37° C., EIA
[4] = system: cytokine release; assay: Panel of standard cell-based in vitro assays evaluating cytokine release inhibition; conditions: prodrugs compared to the steroid drugs (Examples 27 and 62, respectively)
Method: The selected compounds of the invention were tested in a panel of standard, cell-based in vitro assays evaluating the cytokine release inhibition and thus the anti-inflammatory activity of a test article. Several potent steroid analogs were identified, namely compounds described in Examples 23, 27, 43, 59 and 62. […] Therefore by masking the pharmacological properties of a respective steroid the mutual prodrug mitigates the oropharyngeal side effects and confines the antiinflammatory activity of a steroid to the endobronchial space, where the lung enzymes (specifically alkaline phosphatase) release the pharmacologically active steroid (see Examples 141-143).

[5] = system: alkaline phosphatase; assay: Conversion of mutual prodrugs after exposure to alkaline phosphatase (ALP experiment); conditions: for Steroid 13 Concentration / Salmeterol Concentration: mutual prodrug 16 + alkaline phosphatase;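 for all read-outs here: mutual prodrug and its released products quantified by LCMS over time in buffer with alkaline phosphatase, compared against enzyme-free control buffer, incubations running 25–50 hours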
Method: Reaction and control solutions were prepared by adding a 500 μL aliquot of a ˜200 ng/μl solution in 1:1 acetonitrile/water of and the compound 16 (or alternatively 17) to 500 μl of a pH 7.4 buffer solution, containing 5 mM tris(hydroxymethyl)aminomethane, 1 mM ZnCl2, 1 mM MgCl2. For the reaction solutions, the buffer also contained approximately 600 ng/μl of alkaline phosphatase (Sigma-Aldrich) whereas the control buffer solutions contained no enzyme. The reaction and control solutions were incubated at 37° C. for 25 to 50 hours. The solutions were analyzed periodically for the respective mutual prodrug and reaction products by LCMS.
The concentration of the alkaline phosphatase in the reaction buffer was ˜600 ng/μL (the enzyme activity of the solution was not determined).
The concentration of the alkaline phosphatase in the buffer added to the stock solution was ˜600 ng/μl (the enzyme activity of the solution was not determined).

[6] = read-out: Immunosuppresion IC50, mouse splenic lymphocytes, 72 h/37° C., [3H]TMD incorporation
[7] = Mus musculus, Splenic lymphocyte, read-out: Immunosuppresion IC50, mouse splenic lymphocytes, 72 h/37° C., [3H]TMD incorporation

**Q.** `C[C@]12C=CC(=O)C=C1CC[C@H]1[C@@H]3C[C@H]4OC(c5cccnc5)O[C@@]4(C(=O)CO)[C@@]3(C)C[C@H](O)[C@@]12F` (single isomer, unassigned) [Example 22R-epimer] was tested. Which pIC50 [1, 6] did it give?
**A.** The pIC50 was 9.05.

**Q.** What about the pIC50 [2] of the same compound?
**A.** Its pIC50 is 7.92.

**Q.** `C[C@]12C=CC(=O)C=C1CC[C@H]1[C@@H]3C[C@H]4OC(c5cccnc5)O[C@@]4(C(=O)CO)[C@@]3(C)C[C@H](O)[C@@]12F` (single isomer, unassigned) [Example 22S-epimer] was tested. Which pIC50 [1, 6] did it give?
**A.** The pIC50 was 7.44.

**Q.** And the pIC50 [2]?
**A.** Its pIC50 is less than 6.00.

**Q.** What does the source list for `C[C@]12C=CC(=O)C=C1CC[C@@H]1[C@@H]2[C@@H](O)C[C@@]2(C)[C@H]1C[C@H]1O[C@@H](C3CCCCC3)O[C@]12C(=O)CO` [Example 22, 16,17-[(Cyclohexylmethylene)bis(oxy)]-11,21-dihydroxypregna-1,4-diene-3,20-dione[11β,16α(R)]]?
**A.** pIC50 [3]: 8.68; pIC50 [1, 7]: 8.82; pIC50 ([2]; Homo sapiens, 24 h): 7.92

**Q.** With `C[C@]12C=CC(=O)C=C1CC[C@H]1[C@@H]3C[C@H]4O[C@@H](C5CCCCC5)O[C@@]4(C(=O)CO)[C@@]3(C)C[C@H](O)[C@@]12F` [Example 23, 16,17-[(Cyclohexylmethylene)bis(oxy)]-9-fluoro-11,21-dihydroxypregna-1,4-diene-3,20-dione[11β,16α(R)]] as the compound, how does the pIC50 [1, 7] read?
**A.** The pIC50 was 9.47.

**Q.** What about the pIC50 ([2]; Homo sapiens, 24 h) of the same compound?
**A.** The pIC50 was 8.92.

**Q.** What about the “anti-inflammatory activity (cytokine release inhibition), assessment in words” value [4] of the same compound?
**A.** The value was “potent”.

**Q.** With `CN1CCN(CC(=O)[C@@]23O[C@H](C4CCCCC4)O[C@@H]2C[C@H]2[C@@H]4CCC5=CC(=O)C=C[C@]5(C)[C@H]4[C@@H](O)C[C@@]23C)CC1` [Example 26, 16,17-[(Cyclohexylmethylene)bis(oxy)]-11-hydroxy-21-(4-methylpiperazyn-1-yl)-pregna-1,4-diene-3,20-dione[11β,16α(R)]] as the compound, how does the pIC50 [3] read?
**A.** The pIC50 was less than 6.00.

**Q.** What about the pIC50 [1, 7] of the same compound?
**A.** Its pIC50 is 7.51.

**Q.** And the “TNF-α secretion IC50” value [2]?
**A.** Its value is “Not active”.

**Q.** `CN1CCN(CC(=O)[C@@]23O[C@H](C4CCCCC4)O[C@@H]2C[C@H]2[C@@H]4CCC5=CC(=O)C=C[C@]5(C)[C@@]4(F)[C@@H](O)C[C@@]23C)CC1` [Example 27, 16,17-[(Cyclohexylmethylene)bis(oxy)]-9-fluoro-11-hydroxy-21-(4-methylpiperazyn-1-yl)-pregna-1,4-diene-3,20-dione[11β,16α(R)]] was tested. Which pIC50 [3] did it give?
**A.** The pIC50 was 7.44.

**Q.** What about the pIC50 [1, 7] of the same compound?
**A.** Its pIC50 is 7.92.

**Q.** And the “TNF-α secretion IC50” value [2]?
**A.** The value was “Not active”.

**Q.** What about the “Steroid 13 Concentration” value ([5]; 0.00 Hours @ 37° C.) of the same compound?
**A.** Its value is 0.0 nmol/mL.

**Q.** What about the “Steroid 13 Concentration” value ([5]; 0.59 Hours @ 37° C.) of the same compound?
**A.** Its value is 1.6 nmol/mL.

**Q.** And the “Steroid 13 Concentration” value ([5]; 1.19 Hours @ 37° C.)?
**A.** The value was 4.1 nmol/mL.

**Q.** And the “Steroid 13 Concentration” value ([5]; 2.96 Hours @ 37° C.)?
**A.** The value was 15.3 nmol/mL.

**Q.** And the “Steroid 13 Concentration” value ([5]; 3.56 Hours @ 37° C.)?
**A.** The value was 20.2 nmol/mL.

**Q.** And the “Steroid 13 Concentration” value ([5]; 4.15 Hours @ 37° C.)?
**A.** The value was 21.6 nmol/mL.

**Q.** And the “Steroid 13 Concentration” value ([5]; 10.67 Hours @ 37° C.)?
**A.** The value was 49.5 nmol/mL.

**Q.** What about the “Steroid 13 Concentration” value ([5]; 15.41 Hours @ 37° C.) of the same compound?
**A.** The value was 54.6 nmol/mL.

**Q.** And the “Steroid 13 Concentration” value ([5]; 19.56 Hours @ 37° C.)?
**A.** Its value is 62.9 nmol/mL.

**Q.** And the “Steroid 13 Concentration” value ([5]; 24.30 Hours @ 37° C.)?
**A.** The value was 67.3 nmol/mL.

**Q.** And the “Steroid 13 Concentration” value ([5]; 30.82 Hours @ 37° C.)?
**A.** The value was 69.3 nmol/mL.

**Q.** And the “Steroid 13 Concentration” value ([5]; 34.97 Hours @ 37° C.)?
**A.** Its value is 66.5 nmol/mL.

**Q.** What about the “anti-inflammatory activity (cytokine release inhibition), assessment in words” value [4] of the same compound?
**A.** The value was “potent”.

**Q.** How did the pIC50 [1, 7] turn out when `C[C@]12C=CC(=O)C=C1CC[C@H]1[C@@H]3C[C@H]4O[C@@H](C5CCCCC5)O[C@@]4(C(=O)CN4CCOCC4)[C@@]3(C)C[C@H](O)[C@@]12F` [Example 34, 16,17-[(Cyclohexylmethylene)bis(oxy)]-9-fluoro-11-hydroxy-21-(4-morpholin-1-yl)-pregna-1,4-diene-3,20-dione[11β,16α(R)]] was run?
**A.** The pIC50 was 7.70.

**Q.** And the pIC50 ([2]; Homo sapiens, 24 h)?
**A.** Its pIC50 is less than 6.00.

**Q.** How did the pIC50 [1, 7] turn out when `C[C@]12C=CC(=O)C=C1CC[C@H]1[C@@H]3C[C@H]4O[C@@H](C5CCCCC5)O[C@@]4(C(=O)CN4CCC4)[C@@]3(C)C[C@H](O)[C@@]12F` [Example 43, 16,17-[(Cyclohexylmethylene)bis(oxy)]-9-fluoro-11-hydroxy-21-(azetidin-1-yl)-pregna-1,4-diene-3,20-dione[11β,16α(R)]] was run?
**A.** Its pIC50 is 8.06.

**Q.** What about the pIC50 ([2]; Homo sapiens, 24 h) of the same compound?
**A.** The pIC50 was less than 6.00.

**Q.** What about the “anti-inflammatory activity (cytokine release inhibition), assessment in words” value [4] of the same compound?
**A.** The value was “potent”.

**Q.** What does the source list for `C[C@]12C=CC(=O)C=C1CC[C@H]1[C@@H]3C[C@H]4O[C@@H](C5CCCCC5)O[C@@]4(C(=O)Cn4ccnc4)[C@@]3(C)C[C@H](O)[C@@]12F` [Example 45, 16,17-[(Cyclohexylmethylene)bis(oxy)]-9-fluoro-11-hydroxy-21-(imidazol-1-yl)-pregna-1,4-diene-3,20-dione[11β,16α(R)]]?
**A.** pIC50 [1, 7]: < 6.00; TNF-α secretion IC50 [2]: Not active

**Q.** What does the source list for `C[C@]12C=CC(=O)C=C1CC[C@H]1[C@@H]3C[C@H]4O[C@@H](C5CCCCC5)O[C@@]4(C(=O)CSc4ccncc4)[C@@]3(C)C[C@H](O)[C@@]12F` [Example 47, 16,17-[(Cyclohexylmethylene)bis(oxy)]-9-fluoro-11-hydroxy-21-(pyridin-4-yl-thio)-pregna-1,4-diene-3,20-dione[11β,16α(R)]]?
**A.** pIC50 [1, 7]: 7.18; TNF-α secretion IC50 [2]: Not active

**Q.** How did the pIC50 [3] turn out when `CN1CCC(C2O[C@@H]3C[C@H]4[C@@H]5CCC6=CC(=O)C=C[C@]6(C)[C@H]5[C@@H](O)C[C@]4(C)[C@]3(C(=O)CO)O2)CC1` (stereo partly drawn) [Example 56, 16,17-[(1-Methylpiperidyl-4-methylene)bis(oxy)]-11,21-dihydroxypregna-1,4-diene-3,20-dione[11β,16α]] was run?
**A.** Its pIC50 is less than 6.00.

**Q.** And the “Immunosuppresion IC50” value ([1]; mouse splenic lymphocytes, 72 h/37° C., [3H]TMD incorporation)?
**A.** The value was “Not active”.

**Q.** What about the “TNF-α secretion IC50” value [2] of the same compound?
**A.** Its value is “Not active”.

**Q.** `CN1CCC(C2O[C@@H]3C[C@H]4[C@@H]5CCC6=CC(=O)C=C[C@]6(C)[C@@]5(F)[C@@H](O)C[C@]4(C)[C@]3(C(=O)CO)O2)CC1` (stereo partly drawn) [Example 57, 16,17-[(1-Methylpiperidyl-4-methylene)bis(oxy)]-9-fluoro-11,21-dihydroxypregna-1,4-diene-3,20-dione[11β,16α]] was tested. Which pIC50 [3] did it give?
**A.** The pIC50 was less than 6.00.

**Q.** What about the pIC50 [1, 7] of the same compound?
**A.** The pIC50 was less than 6.00.

**Q.** And the “TNF-α secretion IC50” value [2]?
**A.** The value was “Not active”.

**Q.** `C[C@]12C=CC(=O)C=C1CC[C@@H]1[C@@H]2[C@@H](O)C[C@@]2(C)[C@H]1C[C@H]1OC(c3cccnc3)O[C@]12C(=O)CO` (stereo partly shown) [Example 59] was tested. Which pIC50 [1, 7] did it give?
**A.** Its pIC50 is 8.70.

**Q.** And the pIC50 ([2]; Homo sapiens, 24 h)?
**A.** Its pIC50 is 7.07.

**Q.** And the “anti-inflammatory activity (cytokine release inhibition), assessment in words” value [4]?
**A.** The value was “potent”.

**Q.** What does the source list for `C[C@]12C=CC(=O)C=C1CC[C@H]1[C@@H]3C[C@H]4OC(c5cccnc5)O[C@@]4(C(=O)CO)[C@@]3(C)C[C@H](O)[C@@]12F` (stereo partly shown) [Example 62]?
**A.** pIC50 [3]: 6.46; pIC50 [1, 6]: 8.72; pIC50 [2]: 7.96; Steroid 14 Concentration ([5]; mutual prodrug 17 + alkaline phosphatase, 2.10 Hours @ 37° C.): 22.6 nmol/mL; anti-inflammatory activity (cytokine release inhibition), assessment in words [4]: potent

**Q.** What does the source list for `OCc1cc(C(O)CNCCCCCCOCCCCc2ccccc2)ccc1O` (stereo not shown) [Salmeterol, salmeterol, reference compound]?
**A.** Salmeterol Concentration ([5]; 0.00 Hours @ 37° C.): 0.1 nmol/mL; Salmeterol Concentration ([5]; 0.59 Hours @ 37° C.): 1.8 nmol/mL; Salmeterol Concentration ([5]; 1.19 Hours @ 37° C.): 4.4 nmol/mL; Salmeterol Concentration ([5]; 2.96 Hours @ 37° C.): 12.3 nmol/mL; Salmeterol Concentration ([5]; 3.56 Hours @ 37° C.): 14.4 nmol/mL; Salmeterol Concentration ([5]; 4.15 Hours @ 37° C.): 17.1 nmol/mL; Salmeterol Concentration ([5]; 10.67 Hours @ 37° C.): 34.2 nmol/mL; Salmeterol Concentration ([5]; 15.41 Hours @ 37° C.): 41.4 nmol/mL; Salmeterol Concentration ([5]; 19.56 Hours @ 37° C.): 44.8 nmol/mL; Salmeterol Concentration ([5]; 24.30 Hours @ 37° C.): 46.9 nmol/mL; Salmeterol Concentration ([5]; 30.82 Hours @ 37° C.): 48.1 nmol/mL; Salmeterol Concentration ([5]; 34.97 Hours @ 37° C.): 49.6 nmol/mL
